Measurements reported in patent publication US7192746B2, “α-Isomaltosyltransferase, process for producing the same and use thereof” (Kabushiki Kaisha Hayashibara Seibutsu Kagaku Kenkyujo, priority 2000, dated 2007).

Columns and labels:
Format in all cases: biochemical
[1] = tested on: α-isomaltosyl-transferring enzyme from Bacillus globisporus N75; test: Action on saccharides (substrates, TLC); set-up: key: −: there was found no substrate change before and after the enzymatic reaction; +: there were found both the reduction of substrate and the formation of cyclotetrasaccharide after the enzymatic reaction; settings: 2 units/g substrate, 2% (w/v) substrate, 30° C., pH 6.0, 24 hours
Description: (§1) To examine the saccharides in the supernatant, they were separated from the supernatant by silica gel thin-layer chromatography (abbreviated as “TLC” hereinafter) using, as a developer, a mixture solution of n-butanol, pyridine, and water (=6:4:1), and, as a thin-layer plate, “[…] 60”, an aluminum plate (20×20 cm) for TLC commercialized by […]. The coloration of both the separated total sugars by the sulfuric acid-methanol method and the reducing saccharides by the diphenylamine-aniline method detected a non-reducing saccharide at a position with an Rf value of about 0.31, which was positive on the former detection method but negative on the latter detection method.
(§2) It was tested whether saccharides can be used as substrates for the α-isomaltosyl-transferring enzyme. For the purpose, a solution of maltose, maltotriose, maltotetraose, maltopentaose, maltohexaose, maltoheptaose, isomaltose, isomaltotriose, panose, isomaltosylmaltose, isopanose, α,α-trehalose, kojibiose, nigerose, α,β-trehalose, cellobiose, gentibiose, maltitol, maltotriitol, lactose, sucrose, α-cyclodextrin, β-cyclodextrin, γ-cyclodextrin, soluble starch, pullulan, or dextran was prepared. To each of the above solutions was added two units/g substrate of a purified specimen of either α-isomaltosyl-transferring enzyme from Bacillus globisporus C9 obtained by the method in Experiment 4, Bacillus globisporus C11 obtained by the method in Experiment 7, Bacillus globisporus N75 obtained by the method in Experiment 11, or Arthrobacter ramosus S1 obtained by the method in Experiment 15, or a partially purified α-isomaltosyl-transferring enzyme from Arthrobacter globiformis A19 obtained by the method in Experiment 15. The resulting each solution was adjusted to give a substrate concentration of 2% (w/v) and incubated at 30° C. and pH 6.0 for 24 hours. The enzyme solutions before and after the enzymatic reactions were respectively analyzed on TLC as disclosed in Experiment 1 to confirm whether the enzymes acted on these substrates.

[2] = tested on: α-isomaltosyl-transferring enzyme from Bacillus globisporus C11; test: Action on saccharides (substrates, TLC); set-up: key: −: there was found no substrate change before and after the enzymatic reaction; +: there were found both the reduction of substrate and the formation of cyclotetrasaccharide after the enzymatic reaction; settings: 2 units/g substrate, 2% (w/v) substrate, 30° C., pH 6.0, 24 hours
Description: as §1, §2

[3] = tested on: α-isomaltosyl-transferring enzyme from Bacillus globisporus C9; test: Action on saccharides (substrates, TLC); set-up: key: −: there was found no substrate change before and after the enzymatic reaction; +: there were found both the reduction of substrate and the formation of cyclotetrasaccharide after the enzymatic reaction; settings: 2 units/g substrate, 2% (w/v) substrate, 30° C., pH 6.0, 24 hours
Description: as §1, §2

[4] = tested on: α-isomaltosyl-transferring enzyme from Arthrobacter globiformis A19; test: Action on saccharides (substrates, TLC); set-up: key: −: there was found no substrate change before and after the enzymatic reaction; +: there were found both the reduction of substrate and the formation of cyclotetrasaccharide after the enzymatic reaction; settings: partially purified enzyme, 2 units/g substrate, 2% (w/v) substrate, 30° C., pH 6.0, 24 hours
Description: as §1, §2

[5] = tested on: α-isomaltosyl-transferring enzyme from Arthrobacter ramosus S1; test: Action on saccharides (substrates, TLC); set-up: key: −: there was found no substrate change before and after the enzymatic reaction; +: there were found both the reduction of substrate and the formation of cyclotetrasaccharide after the enzymatic reaction; settings: 2 units/g substrate, 2% (w/v) substrate, 30° C., pH 6.0, 24 hours
Description: as §1, §2

[6] = tested on: α-isomaltosyl-transferring enzyme from Bacillus globisporus N75; test: Specificity to transferring acceptor; settings: panose as saccharide donor, 10 units/g substrate, 3.2% (w/v), 30° C., pH 6.0, 24 hours
Method in brief: (§3)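 Candidate acceptor saccharides mixed with panose donor at equal concentration, 10 units/g substrate enzyme, total saccharide 3.2% (w/v), reacted 24 h at 30 °C, pH 6.0. Transfer product formation scored positive/negative by GLC (mono-/disaccharides) or HPLC (tri- and higher).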

[7] = tested on: α-isomaltosyl-transferring enzyme from Bacillus globisporus C11; test: Specificity to transferring acceptor; settings: panose as saccharide donor, 10 units/g substrate, 3.2% (w/v), 30° C., pH 6.0, 24 hours
Method in brief: as §3

[8] = tested on: α-isomaltosyl-transferring enzyme from Bacillus globisporus C9; test: Specificity to transferring acceptor; settings: panose as saccharide donor, 10 units/g substrate, 3.2% (w/v), 30° C., pH 6.0, 24 hours
Method in brief: as §3

[9] = tested on: α-isomaltosyl-transferring enzyme from Arthrobacter globiformis A19; test: Specificity to transferring acceptor; settings: partially purified enzyme, panose as saccharide donor, 10 units/g substrate, 3.2% (w/v), 30° C., pH 6.0, 24 hours
Method in brief: as §3

[10] = tested on: α-isomaltosyl-transferring enzyme from Arthrobacter ramosus S1; test: Specificity to transferring acceptor; settings: panose as saccharide donor, 10 units/g substrate, 3.2% (w/v), 30° C., pH 6.0, 24 hours
Method in brief: as §3

| SMILES | Enzymatic action for forming cyclotetrasaccharide, Enzyme of Strain N75 [1] | Enzymatic action for forming cyclotetrasaccharide, Enzyme of Strain C11 [2] | Enzymatic action for forming cyclotetrasaccharide, Enzyme of Strain C9 [3] | Enzymatic action for forming cyclotetrasaccharide, Enzyme of Strain A19 [4] | Enzymatic action for forming cyclotetrasaccharide, Enzyme of Strain S1 [5] | Product of transferring reaction, Enzyme of Strain N75 [6] | Product of transferring reaction, Enzyme of Strain C11 [7] | Product of transferring reaction, Enzyme of Strain C9 [8] | Product of transferring reaction, Enzyme of Stain A19 [9] | Product of transferring reaction, Enzyme of Strain S1 [10] |
| --- | --- | --- | --- | --- | --- | --- | --- | --- | --- | --- |
| OC[C@H]1O[C@H](O[C@H]2C(O)O[C@H](CO)[C@@H](O)[C@@H]2O)[C@H](O)[C@@H](O)[C@@H]1O (stereo partly drawn) [Kojibiose, kojibiose] | − | − | − | − | − | + (a saccharide-transferred product was formed in an amount of over one percent but below 10% to the total sugars) | + (a saccharide-transferred product was formed in an amount of over one percent but below 10% to the total sugars) | + (a saccharide-transferred product was formed in an amount of over one percent but below 10% to the total sugars) | + (a saccharide-transferred product was formed in an amount of over one percent but below 10% to the total sugars) | + (a saccharide-transferred product was formed in an amount of over one percent but below 10% to the total sugars) |
| OC[C@H]1O[C@H](O[C@H]2[C@H](O)[C@@H](O)[C@@H](O[C@H]3[C@H](O)[C@@H](O)[C@@H](O[C@H]4[C@H](O)[C@@H](O)C(O)O[C@@H]4CO)O[C@@H]3CO)O[C@@H]2CO)[C@H](O)[C@@H](O)[C@@H]1O (stereo partly drawn) [Maltotetraose, maltotetraose] | − | − | − | − | − | + (a saccharide-transferred product was formed in an amount of over one percent but below 10% to the total sugars) | + (a saccharide-transferred product was formed in an amount of over one percent but below 10% to the total sugars) | + (a saccharide-transferred product was formed in an amount of over one percent but below 10% to the total sugars) | + (a saccharide-transferred product was formed in an amount of over one percent but below 10% to the total sugars) | + (a saccharide-transferred product was formed in an amount of over one percent but below 10% to the total sugars) |
| OC[C@@H](O)[C@@H](O[C@H]1O[C@H](CO)[C@@H](O[C@H]2O[C@H](CO)[C@@H](O)[C@H](O)[C@H]2O)[C@H](O)[C@H]1O)[C@H](O)[C@@H](O)CO [Maltotriitol, maltotriitol] | − | − | − | − | − | + (a saccharide-transferred product was formed in an amount of over one percent but below 10% to the total sugars) | + (a saccharide-transferred product was formed in an amount of over one percent but below 10% to the total sugars) | + (a saccharide-transferred product was formed in an amount of over one percent but below 10% to the total sugars) | + (a saccharide-transferred product was formed in an amount of over one percent but below 10% to the total sugars) | + (a saccharide-transferred product was formed in an amount of over one percent but below 10% to the total sugars) |
